Measurements: patent US8207137B2, “Method of inhibiting angiogenesis or invasion or formation of metastases” (INSERM, priority 2001, dated 2012)

Tested on: MDA MB 231 cells
Assay: Athymic murine model of tumor growth
Type: in vivo
Conditions: nude mice, MDA MB 231 tumors; AMEP expressed in muscle after gene electrotransfer, doxycycline induction; after 14 days of treatment
Description: The cDNA of AMEP was subcloned at the Eco RV site of the vector pBi (Clonetech, Palo Alto, Calif., USA). The expression of the gene of interest in this vector was under the dependence of a promoter responding to tetracycline in an expression system involving the eukaryote gene Tet-On. The Tet-On vector expresses the transactivator rtTA (reverse tetracycline transcriptional activator) and the vector Tet-tTS expresses the silencer tTS (tetracycline transcriptional silencer). The purifications of the plasmids were performed in a manner such that no endotoxin was present (Maxi endo free Kit, Quiagen). The purified plasmid DNA was dissolved in endotoxin-free sterile 0.9% NaCl at the desired concentration.
20 μg of plasmid pBi-AMEP, 10 μg of plasmid Tet-off and 20 μg of plasmid Tet-on were dissolved in 30 μl of sterile 0.9% NaCl and injected into the tibia cranial muscle of nude or C57B1/6 mice aged 8 weeks and previously anesthetized by intraperitoneal inoculation of pentobarbital as described by Mir et al. (Mir et al., 1999). […]
The MDA-MB-231 cells, which had been previously cultured to 80% confluence, were detached, washed and resuspended in PBS at the rate of 20·10^6 cells/ml. […] The size of the tumors was monitored for 14 days after induction.

AMEP: disintegrin domain of human metargidin (Met-420 to Glu-511, SEQ ID NO. 2), 91 amino acids, 9.7 kDa; recombinant or expressed in vivo by gene electrotransfer
inhibition of tumor volume: 78%
